Assay results reported in patent US20130171254A1, “FAST DISSOLVING PHARMACEUTICAL COMPOSITION COMPRISING LORNOXICAM” (ABBOTT HEALTHCARE PRIVATE LIMITED, priority 2009, published 2013).
≈ marks a conversion by molar mass, not a printed value. Like-named read-outs stand apart in the source and are kept apart here.

Experiments:
[1] = cited from earlier work
[2] = 8 mg dose, acidic conditions such as found in the stomach
[3] = 0.1 N HCl at room temperature (Bertelsen et al U.S. Pat. No. 6,713,089); cited from earlier work
[4] = cited from earlier work; remark: listed apart in the source
[5] = cited from earlier work; remark: listed apart in the source

Row | volume of acid required for complete dissolution [2] | solubility (physchem; pH 1.2, simulated gastric fluid) | solubility (physchem; water) | Compound | pKa ([1]; basic pyrimido group) | pKa [1] | pKa ([1]; enolic group) | apparent partition coefficient ([1]; n-octanol/buffer pH 7.4) | solubility [3] | synovial fluid: plasma AUC ratios ([4]; after administration of 4 mg twice daily) | Tmax, range ([4]; fasted subjects) | time to reach peak plasma concentrations (Tmax) ([4]; fasted subjects) | half-life ([4]; in vivo) | median Tmax ([4]; new formulations containing 40% bicarbonate, co-processed intimately (US 20070218128, Bertelsen)) | median Tmax ([4]; standard tablets (US 20070218128, Bertelsen)) | mean Tmax ([5]; 25 mg film-coated tablets with bicarbonate) | mean Tmax ([5]; 50 mg film-coated tablets with bicarbonate) | mean Tmax ([5]; standard immediate release tablets)
1 | more than 1400 ml | 5.6 µg/mL (≈ 15.1 µM) | 10.4 µg/mL (≈ 28 µM) | CN1C(=C(O)Nc2ccccn2)C(=O)c2sc(Cl)cc2S1(=O)=O (stereo in doubt) [lornoxicam, (3E)-6-chloro-3-[hydroxy(pyridin-2-ylamino)methylene]-2-methyl-2,3-dihydro-4H-thieno[2,3-e][1,2]thiazin-4-one 1,1-dioxide] | 5.5 | 4.7 | 1-2 | 1.8 | less than 1 mg/100 ml | ~0.5 | 84 to 360 min | around 2.5 hours | approximately 4 hours | 30 min | 150 min |  |  | 
2 |  |  |  | O=C(O)Cc1ccccc1Nc1c(Cl)cccc1Cl [diclofenac] |  |  |  |  |  |  |  |  |  |  |  | 21.2 min | 29.8 min | 50.8 min
